The target of the test is Human CD38 (Homo sapiens (Human), UniProt P28907). Nature of the test: CD38 enzyme assay. The test is classed as biochemical. As to conditions: 2 nM CD38, NAD+ substrate, absorbance at 405 nm. The method, boiled down:
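IC50 values come from fitting % inhibition against compound concentration with a 4-parameter logistic, or a 3-parameter fit with top/bottom fixed at 100/0 or Hill at 1. Inhibition is scaled between DMSO wells and positive-control wells treated with a quinolinone CD38 inhibitor.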
Human CD38, sequence (P28907 whole entry): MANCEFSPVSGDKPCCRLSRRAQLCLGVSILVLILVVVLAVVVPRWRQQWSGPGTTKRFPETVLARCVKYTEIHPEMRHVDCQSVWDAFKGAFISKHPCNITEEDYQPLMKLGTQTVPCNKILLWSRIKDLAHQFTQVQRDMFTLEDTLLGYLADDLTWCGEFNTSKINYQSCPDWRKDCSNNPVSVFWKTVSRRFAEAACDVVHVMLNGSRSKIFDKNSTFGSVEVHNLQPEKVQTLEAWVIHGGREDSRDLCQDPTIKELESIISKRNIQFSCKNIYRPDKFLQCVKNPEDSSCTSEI
One may read the IC50 as the midpoint of a concentration-inhibition curve. On to `CC(F)(F)CN[C@H]1CC[C@H](NC(=O)c2nc(-n3ccnc3)nc3cn[nH]c23)CC1` [Example 244, N-((1r,4r)-4-((2,2-difluoropropyl)amino)cyclohexyl)-5-(1H-imidazol-1-yl)-1H-pyrazolo[4,3-d]pyrimidine-7-carboxamide], for which the IC50 fell in the range of 10 to 100 nM.

The compound `O=C(NCCC(F)F)c1nc(-n2ccnc2)cc2cn[nH]c12` [Example 245, N-(3,3-difluoropropyl)-5-(1H-imidazol-1-yl)-1H-pyrazolo[3,4-c]pyridine-7-carboxamide] displayed a half-inhibitory concentration (IC50) of 10 to 100 nM. The result for `CC(F)(F)CN[C@H]1CC[C@H](NC(=O)c2nc(-n3ccnc3)nc3ccsc23)CC1` [Example 246, N-((1r,4r)-4-((2,2-difluoropropyl)amino)cyclohexyl)-2-(1H-imidazol-1-yl)thieno[3,2-d]pyrimidine-4-carboxamide] reads 10 to 100 nM; that for `CN(CC(F)(F)F)[C@H]1CC[C@H](NC(=O)c2nc(-n3ccnc3)nc3cn[nH]c23)CC1` [Example 248, 5-(1H-imidazol-1-yl)-N-((1r,4r)-4-(methyl(2,2,2-trifluoroethyl)amino)cyclohexyl)-1H-pyrazolo[4,3-d]pyrimidine-7-carboxamide], 10 to 100 nM. Regarding `O=C(N[C@H]1CC[C@H](OCCC(F)(F)F)CC1)c1nc(-n2ccnc2)cc2cn[nH]c12` [Example 249, 5-(1H-imidazol-1-yl)-N-((1r,4r)-4-(3,3,3-trifluoropropoxy)cyclohexyl)-1H-pyrazolo[3,4-c]pyridine-7-carboxamide], the IC50 was less than 10 nM. Turning to `O=C(N[C@H]1CC[C@H](CNCC(F)(F)F)CC1)c1nc(-n2ccnc2)cc2cn[nH]c12` [Example 250, 5-(1H-imidazol-1-yl)-N-((1r,4r)-4-(((2,2,2-trifluoroethyl)amino)methyl)cyclohexyl)-1H-pyrazolo[3,4-c]pyridine-7-carboxamide], the IC50 was in the range of 10 to 100 nM. On to `O=C(N[C@H]1CC[C@@H](OCC(F)(F)F)CC1)c1nc(-n2ccnc2)cc2cn[nH]c12` [Example 251, 5-(1H-imidazol-1-yl)-N-((1s,4s)-4-(2,2,2-trifluoroethoxy)cyclohexyl)-1H-pyrazolo[3,4-c]pyridine-7-carboxamide], for which the IC50 fell in the range of 10 to 100 nM. For `O=C(N[C@H]1CC[C@H](OCC(F)(F)F)CC1)c1nc(-n2ccnc2)cc2cn[nH]c12` [Example 252, 5-(1H-imidazol-1-yl)-N-((1r,4r)-4-(2,2,2-trifluoroethoxy)cyclohexyl)-1H-pyrazolo[3,4-c]pyridine-7-carboxamide], the half-maximal inhibitory concentration (IC50) lay in the range of 10 to 100 nM. The result for `CC(C)(N[C@H]1CC[C@H](NC(=O)c2nc(-n3ccnc3)cc3cn[nH]c23)CC1)C(F)F` [Example 253, N-((1r,4r)-4-((1,1-difluoro-2-methylpropan-2-yl)amino)cyclohexyl)-5-(1H-imidazol-1-yl)-1H-pyrazolo[3,4-c]pyridine-7-carboxamide] reads 10 to 100 nM; that for `CC(C)(N[C@H]1CC[C@@H](NC(=O)c2nc(-n3ccnc3)cc3cn[nH]c23)CC1)C(F)F` [Example 254, N-((1s,4s)-4-((1,1-difluoro-2-methylpropan-2-yl)amino)cyclohexyl)-5-(1H-imidazol-1-yl)-1H-pyrazolo[3,4-c]pyridine-7-carboxamide], 100 to 1000 nM; that for `O=C(N[C@H]1CC[C@H](N2CC(F)(F)C2)CC1)c1nc(-n2ccnc2)nc2cn[nH]c12` [Example 255, N-((1r,4r)-4-(3,3-difluoroazetidin-1-yl)cyclohexyl)-5-(1H-imidazol-1-yl)-1H-pyrazolo[4,3-d]pyrimidine-7-carboxamide], 10 to 100 nM. Consider `CC1(F)CN([C@H]2CC[C@@H](NC(=O)c3nc(-n4ccnc4)nc4cn[nH]c34)CC2)C1` [Example 256, N-((1s,4s)-4-(3-fluoro-3-methylazetidin-1-yl)cyclohexyl)-5-(1H-imidazol-1-yl)-1H-pyrazolo[4,3-d]pyrimidine-7-carboxamide], for which the IC50 fell in the range of 100 to 1000 nM.

On to `CC1(F)CN([C@H]2CC[C@H](NC(=O)c3nc(-n4ccnc4)nc4cn[nH]c34)CC2)C1` [Example 257, N-((1r,4r)-4-(3-fluoro-3-methylazetidin-1-yl)cyclohexyl)-5-(1H-imidazol-1-yl)-1H-pyrazolo[4,3-d]pyrimidine-7-carboxamide], for which the IC50 fell in the range of 10 to 100 nM. Take `CC1(C#N)CN([C@H]2CC[C@H](NC(=O)c3nc(-n4ccnc4)cc4cn[nH]c34)CC2)C1` [Example 258, N-((1r,4r)-4-(3-cyano-3-methylazetidin-1-yl)cyclohexyl)-5-(1H-imidazol-1-yl)-1H-pyrazolo[3,4-c]pyridine-7-carboxamide]: the IC50 was 10 to 100 nM.

Regarding `CC1(C#N)CN([C@H]2CC[C@@H](NC(=O)c3nc(-n4ccnc4)cc4cn[nH]c34)CC2)C1` [Example 259, N-((1s,4s)-4-(3-cyano-3-methylazetidin-1-yl)cyclohexyl)-5-(1H-imidazol-1-yl)-1H-pyrazolo[3,4-c]pyridine-7-carboxamide], the IC50 was in the range of 100 to 1000 nM. The value for `CC(C)(O)[C@H]1CC[C@H](NC(=O)c2nc(-n3ccnc3)cc3ccsc23)CC1` [Example 260, N-((1r,4r)-4-(2-hydroxypropan-2-yl)cyclohexyl)-5-(1H-imidazol-1-yl)thieno[2,3-c]pyridine-7-carboxamide] was less than 10 nM; that for `O=C(N[C@H]1CC[C@H](NCC(F)F)CC1)c1nc(-n2ccnc2)cc2ccsc12` [Example 261, N-((1r,4r)-4-((2,2-difluoroethyl)amino)cyclohexyl)-5-(1H-imidazol-1-yl)thieno[2,3-c]pyridine-7-carboxamide] was less than 10 nM; that for `CC(F)(F)CN[C@H]1CC[C@H](NC(=O)c2nc(-n3ccnc3)cc3ccsc23)CC1` [Example 262, N-((1r,4r)-4-((2,2-difluoropropyl)amino)cyclohexyl)-5-(1H-imidazol-1-yl)thieno[2,3-c]pyridine-7-carboxamide] was 10 to 100 nM. The compound `O=C(N[C@H]1CC[C@H](C2(O)CC2)CC1)c1nc(-n2ccnc2)cc2ccsc12` [Example 263, N-((1r,4r)-4-(1-hydroxycyclopropyl)cyclohexyl)-5-(1H-imidazol-1-yl)thieno[2,3-c]pyridine-7-carboxamide] had an IC50 of less than 10 nM.

As to `C[C@@H](O)[C@H]1CC[C@H](NC(=O)c2nc(-n3ccnc3)cc3ccsc23)CC1` [Example 264a, N-((1R,4r)-4-((R)-1-hydroxyethyl)cyclohexyl)-5-(1H-imidazol-1-yl)thieno[2,3-c]pyridine-7-carboxamide], the IC50 was less than 10 nM. On to `C[C@H](O)[C@H]1CC[C@H](NC(=O)c2nc(-n3ccnc3)cc3ccsc23)CC1` [Example 264b, N-((1S,4r)-4-((S)-1-hydroxyethyl)cyclohexyl)-5-(1H-imidazol-1-yl)thieno[2,3-c]pyridine-7-carboxamide], for which the half-inhibitory concentration (IC50) fell in the range of 10 to 100 nM.

In the case of `CC(C)(O)[C@H]1C[C@H](NC(=O)c2nc(-n3ccnc3)nc3cn[nH]c23)C1` [Example 265, N-((1r,3r)-3-(2-hydroxypropan-2-yl)cyclobutyl)-5-(1H-imidazol-1-yl)-1H-pyrazolo[4,3-d]pyrimidine-7-carboxamide], the IC50 was in the range of 10 to 100 nM.

In the case of `CC(C)(O)[C@H]1C[C@H](NC(=O)c2nc(-n3ccnc3)cc3cn[nH]c23)C1` [Example 266, N-((1r,3r)-3-(2-hydroxypropan-2-yl)cyclobutyl)-5-(1H-imidazol-1-yl)-1H-pyrazolo[3,4-c]pyridine-7-carboxamide], the IC50 lay in the range of 10 to 100 nM.

Values taken from patent publication US11535621B2, “Heterobicyclic amides as inhibitors of CD38” (Ribon Therapeutics, Inc., priority 2019, dated 2022).
